According to publication PMC10385824, “Antiproliferative and Tubulin-Destabilising Effects of 3-(Prop-1-en-2-yl)azetidin-2-Ones and Related Compounds in MCF-7 and MDA-MB-231 Breast Cancer Cells” (Pharmaceuticals, 2023):
Like-named read-outs stand apart in the source and are kept apart here.

Legend:
[1] = HPLC stability study in phosphate buffers; assay type: physicochemical; settings: for remaining at 264 h, 14.6 µg/mL: study over 264 h; for remaining at 7 h, 14.6 µg/mL: study over 7 h
[2] = system: MCF-7 human breast cancer cells; assay: cells
Description: All biochemical assays were performed in triplicate for the determination of mean values reported. The human breast carcinoma cell line MCF-7 was purchased from the European Collection of Animal Cell Cultures (ECACC) and was cultured in Eagle’s minimum essential medium with 10% fetal bovine serum, 2 mM L-glutamine and 100 μg/mL penicillin/streptomycin. The medium was supplemented with 1% non-essential amino acids. […] All cells were sub-cultured 3 times/week by trypsinisation.
Cells were seeded at a density of 5 × 10^3 cells/well (MCF-7) in triplicate in 96-well plates. […] Cell proliferation for MCF-7 and MDA-MB-231 cells was analysed using the Alamar Blue assay (Invitrogen Corp.). […] Experiments were performed in triplicate on at least three separate occasions.

[3] = HPLC stability under degradation conditions (acid, alkali, heat, light, oxidation)
Description: Samples were analysed using mobile phase acetonitrile (80%): water (20%), flow rate (1 mL/min) over 10 min. […] First, 30 µL of compound stock solution was diluted with appropriate buffer (1 mL); sample was shaken and injected immediately. […] (ii) Thermal stability: Compound stock solution (1 mL) was placed in a glass vial on a heating block for 4 h at 60 °C. The sample was then cooled, diluted (acetonitrile) and analysed. (ii) Oxidising conditions: H2O2 (3%, 0.2 mL) was added to compound stock solution (0.8 mL).
a All samples were analysed using acetonitrile (80%):water (20%) as the mobile phase over
10 min and a flow rate of 1 mL/min.

MDA-MB-231/ATCC = assay: NCI-60 SRB screen, breast cancer; assay type: cell-based, human; settings: Homo sapiens; MDA-MB-231; obtained from NCI; five concentrations 0.01–100 μM; 48 h; read-out: Antiproliferative Activity IC50
[4] = system: purified bovine brain tubulin; assay: Tubulin polymerization assay (light scattering, BK006 kit); assay type: biochemical; settings: for Vmax: 37 °C, 340 nm
Description: Tubulin polymerization was monitored using the BK006 kit obtained from Cytoskeleton Inc. (Denver, CO, USA). The values reported represent the average values determined from two independent assays. Purified bovine brain tubulin (>99%, 3 mg/mL) in buffer containing PIPES (80 mM, pH 6.9), EGTA (0.5 mM), MgCl2 (2 mM), GTP (1 mM) and glycerol (10%) was incubated at 37 °C in vehicle (1% DMSO or EtOH (v/v) in dH2O) or with compounds 9h, 9q, 9s, 10h, 10p, 10r, 11h, 11p, 11r, 17f (all at 10 µM concentration); CA-4 (10 μM) was used as control. In this assay, light scattering is related to the concentration of polymerised microtubules produced. Tubulin assembly was monitored turbidimetrically at 340 nm at 37 °C in a Spectramax 340 PC spectrophotometer (Molecular Devices, Sunnyvale, CA, USA).

[5] = system: MDA-MB-231 human breast cancer cells; assay: Alamar Blue cell viability (antiproliferative) assay; assay type: cell-based
[6] = system: NCI 60 human cancer cell line panel; assay: NCI 60 cell line screen (SRB), panel values; settings: for IC (TGI (total growth inhibition)): read-out: Mean TGI
[7] = HPLC stability study in plasma; assay type: in vitro ADME, human; settings: human, buffered plasma (plasma:buffer 1:9), Plasma
Description: Analytical high-performance liquid chromatography (HPLC) stability studies were performed as follows using Symmetry® column (C18, 5 µm, 4.6 × 150 mm), Waters 2487 Dual Wavelength Absorbance detector, Waters 1525 binary HPLC pump and Waters 717 plus Autosampler (Waters Corporation, Milford, MA, USA) with detection at 254 nm as previously described. Samples were analysed using mobile phase acetonitrile (80%): water (20%), flow rate (1 mL/min) over 10 min. […] First, 30 µL of compound stock solution was diluted with appropriate buffer (1 mL); sample was shaken and injected immediately. Samples were withdrawn and analysed at the following time points: t = 0 min, 5 min, 30 min, 60 min, 90 min, 120 min, 24 h and 48 h. (ii) Thermal stability: Compound stock solution (1 mL) was placed in a glass vial on a heating block for 4 h at 60 °C. The sample was then cooled, diluted (acetonitrile) and analysed. (ii) Oxidising conditions: H2O2 (3%, 0.2 mL) was added to compound stock solution (0.8 mL). The vial was vortexed and retained at 20 °C, and the sample was analysed at 60, 120 180 and 240 min. (iv) Acidic conditions: HCl (0.1 M, 0.2 mL) was added to stock solutions (0.8 mL). The vial was mixed by vortex and retained at 20 °C. A sample was neutralised with NaOH (0.1 M, 0.2 mL) at 60, 120, 180 and 240 min, followed by HPLC analysis. (v) Alkaline conditions: NaOH (0.1 M, 0.2 mL) was added to stock solution (0.8 mL) of the compound in a vial. The vial was mixed by vortex and retained at 20 °C. A sample was neutralised with HCl (0.1 M, 0.2 mL) at 60, 120, 180 and 240 min followed by HPLC analysis. (vi) Photostability study: Compounds (stock solution, 1 mL) were placed in a vial, exposed to UV light for 4 h and then analysed by HPLC as above. Stability studies in plasma: Approval for this study was obtained from the School of Pharmacy and Pharmaceutical Sciences Trinity College Dublin Research Ethics Committee (2020–06-01-MS). Following informed consent, blood was withdrawn from healthy volunteers, and plasma was obtained by centrifugation and kept at −20 °C until further use. […] A sample (250 µL) was then added to the Eppendorf tube containing ZnSO4.7H2O solution (500 µL) (2% w/v ZnSO4 solution in acetonitrile:water, 1:1). The samples were centrifuged (10,000 rpm, 3 min), filtered (0.2 micron filter) and analysed by HPLC as above. Further samples were taken at one-hour intervals.

[8] = system: microtubule network in MCF-7 cells; assay: Immunofluorescence confocal microscopy; assay type: cell-based, human; settings: 16 h
Description: CA-4 and β-lactam 9q depolymerise the microtubule network in MCF-7 cells. […] After 16 h, the cells were fixed in 4% paraformaldehyde and stained with mouse monoclonal anti-α-tubulin−FITC antibody (clone DM1A) (green), Alexa Fluor 488 dye, and counterstained with DAPI (blue). The confocal images were obtained by Leica SP8 confocal microscopy with Leica application suite X software. Representative confocal micrograph images of three separate experiments are shown above [scale bar: […]].
The effects of β-lactam 9q on MCF-7 cytoskeleton were determined using confocal microscopy as previously described. MCF-7 cells were seeded at 1 × 10^5 cells/mL in glass slides with eight chambers (BD Biosciences, San Jose, CA, USA). […] Following treatment, cells were gently washed in PBS, fixed for 20 min with 4% paraformaldehyde in PBS and permeabilised in 0.5% Triton X-100. The cells were then washed with PBS-T (PBS containing 0.1% Tween), blocked in 5% bovine serum albumin diluted in PBS-T and incubated with mouse monoclonal anti-α-tubulin-FITC antibody (clone DM1A) (Sigma, Milwaulkee, WI, USA) (1:100) for 2 h at 20 °C. The cells were washed again with PBS-T and incubated with Alexa Fluor 488 dye (1:450) for 1 h at 20 °C. Following washes in PBST, the cells were mounted in Ultra Cruz Mounting Media (Santa Cruz Biotechnology, Santa Cruz, CA, USA), which contained 4,6-diamino-2-phenolindol dihydrochloride (DAPI). The immunofluorescence cell images were captured by Leica SP8 confocal microscopy and analysed with Leica application suite X software. Microscopy experiments were performed on three independent occasions, and the images for these experiments were obtained on the same day using identical conditions.

MCF-7 cells [9] = assay: Annexin-V/PI apoptosis assay
Description: Flow cytometry using annexin-V and propidium iodide (PI) was used to detect apoptotic cell death in MCF-7 cells. […] Cells were then incubated on ice in darkness for 30 min in annexin-V-containing binding buffer [1:100]. Cells were washed once in binding buffer and then re-suspended in propidium iodide containing binding buffer [1:1000]. Cells were analysed directly using the BD Accuri flow cytometer and Prism software. Four cell populations are produced in this assay: annexin-V- and PI-negative (Q4, healthy cells), annexin-V-positive and PI-negative (Q3, early apoptosis), annexin-V- and PI-positive (Q2, late apoptosis) and annexin-V-negative and PI-positive (Q1, necrosis). CA-4 (50 nM) was used as the positive control for apoptosis.
Cells were then collected and processed for analysis.

[10] = system: colchicine-binding site of β-tubulin (Cys239, Cys354) in MCF-7 cells; assay: Colchicine-binding site assay (EBI crosslinking, Western blot); settings: 10 μM, 2 h, then EBI
Description: MCF-7 cells were seeded at density of 5 × 10^4 cells/well in 6-well plates and incubated overnight. […] Samples were separated by SDS-PAGE, transferred to polyvinylidene difluoride membranes and examined with β-tubulin antibodies (Sigma-Aldrich, Milwaulkee, WI, USA) [99].
Cells were harvested, lysed and then analysed using sedimentation followed by Western blotting to identify β-tubulin and β-tubulin-EBI adduct.

MCF-7 cells [11] = assay: Lactate dehydrogenase (LDH) cytotoxicity assay; assay type: cell-based, human; settings: 10 μM, 72 h, LDH release
Description: The cytotoxic effects of the compounds were determined using the CytoTox 96 non-radioactive cytotoxicity assay (Promega) as previously reported. The MCF-7 cells were seeded in 96-well plates and incubated for 24 h. Cells were treated with test compounds 16, 26 and 30 at 10 μM concentration as described in the cell viability assay above. At 72 hr, 20 μL of ‘lysis solution (10X)’ was added to the control wells to ensure 100% death. The cells were incubated for a further 1 hr. Supernatant (50 μL) was removed from each well and transferred to a 96-well plate. Cytotox 96R Reagent (50 μL) was added to each well, and the plate was retained in darkness at 20 °C for 30 min. 50 μL of ‘stop solution’ was then added to each well, and the absorbance was determined at 490 nm using a Dynatech MR5000 plate reader. The cell death (%) at 10 μM was determined.

[12] = MCF7, read-out: Antiproliferative Activity IC50, MCF-7, eight concentrations 0.001–50 μM, mean ± SEM, Table 3
[13] = Homo sapiens, 60 cell, read-out: Mean GI50, mean over all NCI 60 cell lines

C=CCC1C(=O)N(c2cc(OC)c(OC)c(OC)c2)C1c1ccc(OC)c(N)c1 (stereo not shown) [10r, 3-Allyl-4-(3-amino-4-methoxyphenyl)-1-(3,4,5-trimethoxyphenyl)azetidin-2-one] showed a remaining at 264 h, 14.6 µg/mL ([1]; phosphate buffer, pH 4.0) of 96%, a remaining at 264 h, 14.6 µg/mL ([1]; phosphate buffer, pH 7.4) of 99% and a remaining at 264 h, 14.6 µg/mL ([1]; phosphate buffer, pH 9.0) of 83%. For the same compound, the half-life at 14.6 µg/mL ([1]; phosphate buffer, pH range studied, medium not specified, read-out: half-life (t½) (converted)) was over 24 h, the IC50 ([2]; MCF7, MCF-7) was 10 to 33 nM and the IC50 [2, 12] was 35 ± 4 nM. For the same compound, the remaining at 4 h ([3]; 1M HCl added to stock solution, % Remaining, 1M HCl (0.1 mL, 20 °C, 4h)) was 91.8%, the remaining at 4 h ([3]; 1M HCl added to stock solution, % Remaining, 1M HCl (0.2 mL, 50 °C, 4h)) was 92.2% and the remaining at 4 h ([3]; 1M NaOH added to stock solution, % Remaining, 1M NaOH (0.2 mL, 50 °C, 4h)) was 83.1%. The remaining at 6 h ([3]; 30% H2O2 added to stock solution, Hydrogen peroxide (30 % H2O2, 0.2 mL), 20 °C, 6h) was 8%, the remaining at 312 h, 0.5 mg/mL ([3]; solution in acetonitrile:water 80:20, daylight, % Remaining, Daylight (acetonitrile (80%):water (20%) 13 days)) was 93% and the remaining at 5 h, 0.5 mg/mL ([3]; stock solution in acetonitrile:water 80:20, heated, % Remaining, 80 °C (heating block, 5 h)) was 100%. The IC50 (MDA-MB-231/ATCC) was 35.2 nM, the Vmax ([4]; compound at 10 μM) was 0.0029 mOD/min and the “Fold Reduction in Vmax” value ([4]; compound at 10 μM, relative to vehicle) was 3.4. It also gave an IC50 ([5]; read-out: IC50) of 35 nM, a GI50 [6, 13] of under 91.2 nM and a CC50 ([6]; Homo sapiens, 60 cell, read-out: Mean LC50) of 79400 nM. For the same compound, the IC (TGI (total growth inhibition)) ([6]; Homo sapiens, 60 cell) was 53700 nM, the GI50 ([6]; read-out: Mean GI50, mean over all NCI 60 cell lines) was 85.1 nM and the remaining at 264 h, 41.3 µg/mL ([7]; study over 264 h) was 97%.
With COc1ccc(/C=C\c2cc(OC)c(OC)c(OC)c2)cc1O [CA-4, Combretastatin A-4, reference compound] the time stable ([1]; pH 4.0, 7.4 and 9.0 and human plasma) was “more than 7 h”, the remaining at 7 h, 14.6 µg/mL ([1]; phosphate buffer, pH 4.0) was 97% and the remaining at 7 h, 14.6 µg/mL ([1]; phosphate buffer, pH 7.4) was 89%. The remaining at 7 h, 14.6 µg/mL ([1]; phosphate buffer, pH 9.0) was 90%, the “effect on microtubule network” value [8] was “microtubule formation was inhibited and resulted in depolymerised microtubules” and the IC50 ([2]; MCF7, 72 h, MCF-7, Figure 2, 72 h) was 3 nM. The IC50 ([2]; MCF7, 72 h, read-out: Antiproliferative Activity IC50, MCF-7, 72 h, eight concentrations 1–50 μM, mean ± SEM, Table 2) was 3.9 nM, the IC50 ([2]; MCF7, 72 h, read-out: Antiproliferative Activity IC50, MCF-7, 72 h, eight concentrations (0.001–50 mM [sic]), mean ± SEM, Table 5) was 3.9 ± 0.32 nM and the IC50 ([2]; MCF7, MCF-7) was 3.9 nM. The IC50 [2, 12] was 3.9 ± 0.32 nM, the IC50 ([2]; MCF7, read-out: Antiproliferative Activity IC50, MCF-7, eight concentrations 0.001–50 μM, mean ± SEM, Table 4) was 3.9 ± 0.32 nM and the “cells undergoing apoptosis (early+late)” value (MCF-7 cells [9]; 50 nM, 72 h) was 34.6%. The viability at 0.05 µM (MCF-7 cells [9]; Homo sapiens, MCF7, 72 h, read-out: Viable) was 61.8%, the “formation of β-tubulin-EBI adduct” value [10] was “formation of the EBI adduct was prevented” and the cell death (MCF-7 cells [11]) was 12%. The “Fold Reduction in Vmax” value [4] was 6.3, the Vmax ([4]; compound at 10 μM) was 0.0022 mOD/min and the IC50 ([5]; 72 h, eight concentrations 0.001-50 μM, mean ± SEM, read-out: Antiproliferative Activity IC50) was 43 nM. The GI50 [6, 13] was 99.3 nM, the IC (TGI (total growth inhibition)) ([6]; Homo sapiens, 60 cell) was 10300 nM and the remaining at 7 h, 41.3 µg/mL ([7]; study over 7 h) was 95%.
For CC(=O)O[C@H]1C(=O)[C@@]2(C)[C@H]([C@H](OC(=O)c3ccccc3)[C@]3(O)C[C@H](OC(=O)[C@H](O)[C@@H](NC(=O)c4ccccc4)c4ccccc4)C(C)=C1C3(C)C)[C@]1(OC(C)=O)CO[C@@H]1C[C@@H]2O [paclitaxel], the “effect on microtubule network” value [8] was “induced the formation of microtubule bundles and pseudo-asters”.
